Patent publication US10106530B2, “Pyrazolyl substituted tetrahydropyranylsulfones” (GRÜNENTHAL GMBH, priority 2015, dated 2018)

biological target: T1, Human CaV2.2 channels (Homo sapiens, UniProt Q00975); assay: Fluorescence assay for CaV2.2 channels using potassium depolarization to induce channel opening (FLIPR, Fluo 4); type: cell-based; conditions: 3 μM test compound, 30 mM KCl assay buffer (inactivated channel state), HEK293 cells
T1 construct: expressed in transfected cells; also stably expressing Kir2.3)
T1 sequence (Q00975 whole entry): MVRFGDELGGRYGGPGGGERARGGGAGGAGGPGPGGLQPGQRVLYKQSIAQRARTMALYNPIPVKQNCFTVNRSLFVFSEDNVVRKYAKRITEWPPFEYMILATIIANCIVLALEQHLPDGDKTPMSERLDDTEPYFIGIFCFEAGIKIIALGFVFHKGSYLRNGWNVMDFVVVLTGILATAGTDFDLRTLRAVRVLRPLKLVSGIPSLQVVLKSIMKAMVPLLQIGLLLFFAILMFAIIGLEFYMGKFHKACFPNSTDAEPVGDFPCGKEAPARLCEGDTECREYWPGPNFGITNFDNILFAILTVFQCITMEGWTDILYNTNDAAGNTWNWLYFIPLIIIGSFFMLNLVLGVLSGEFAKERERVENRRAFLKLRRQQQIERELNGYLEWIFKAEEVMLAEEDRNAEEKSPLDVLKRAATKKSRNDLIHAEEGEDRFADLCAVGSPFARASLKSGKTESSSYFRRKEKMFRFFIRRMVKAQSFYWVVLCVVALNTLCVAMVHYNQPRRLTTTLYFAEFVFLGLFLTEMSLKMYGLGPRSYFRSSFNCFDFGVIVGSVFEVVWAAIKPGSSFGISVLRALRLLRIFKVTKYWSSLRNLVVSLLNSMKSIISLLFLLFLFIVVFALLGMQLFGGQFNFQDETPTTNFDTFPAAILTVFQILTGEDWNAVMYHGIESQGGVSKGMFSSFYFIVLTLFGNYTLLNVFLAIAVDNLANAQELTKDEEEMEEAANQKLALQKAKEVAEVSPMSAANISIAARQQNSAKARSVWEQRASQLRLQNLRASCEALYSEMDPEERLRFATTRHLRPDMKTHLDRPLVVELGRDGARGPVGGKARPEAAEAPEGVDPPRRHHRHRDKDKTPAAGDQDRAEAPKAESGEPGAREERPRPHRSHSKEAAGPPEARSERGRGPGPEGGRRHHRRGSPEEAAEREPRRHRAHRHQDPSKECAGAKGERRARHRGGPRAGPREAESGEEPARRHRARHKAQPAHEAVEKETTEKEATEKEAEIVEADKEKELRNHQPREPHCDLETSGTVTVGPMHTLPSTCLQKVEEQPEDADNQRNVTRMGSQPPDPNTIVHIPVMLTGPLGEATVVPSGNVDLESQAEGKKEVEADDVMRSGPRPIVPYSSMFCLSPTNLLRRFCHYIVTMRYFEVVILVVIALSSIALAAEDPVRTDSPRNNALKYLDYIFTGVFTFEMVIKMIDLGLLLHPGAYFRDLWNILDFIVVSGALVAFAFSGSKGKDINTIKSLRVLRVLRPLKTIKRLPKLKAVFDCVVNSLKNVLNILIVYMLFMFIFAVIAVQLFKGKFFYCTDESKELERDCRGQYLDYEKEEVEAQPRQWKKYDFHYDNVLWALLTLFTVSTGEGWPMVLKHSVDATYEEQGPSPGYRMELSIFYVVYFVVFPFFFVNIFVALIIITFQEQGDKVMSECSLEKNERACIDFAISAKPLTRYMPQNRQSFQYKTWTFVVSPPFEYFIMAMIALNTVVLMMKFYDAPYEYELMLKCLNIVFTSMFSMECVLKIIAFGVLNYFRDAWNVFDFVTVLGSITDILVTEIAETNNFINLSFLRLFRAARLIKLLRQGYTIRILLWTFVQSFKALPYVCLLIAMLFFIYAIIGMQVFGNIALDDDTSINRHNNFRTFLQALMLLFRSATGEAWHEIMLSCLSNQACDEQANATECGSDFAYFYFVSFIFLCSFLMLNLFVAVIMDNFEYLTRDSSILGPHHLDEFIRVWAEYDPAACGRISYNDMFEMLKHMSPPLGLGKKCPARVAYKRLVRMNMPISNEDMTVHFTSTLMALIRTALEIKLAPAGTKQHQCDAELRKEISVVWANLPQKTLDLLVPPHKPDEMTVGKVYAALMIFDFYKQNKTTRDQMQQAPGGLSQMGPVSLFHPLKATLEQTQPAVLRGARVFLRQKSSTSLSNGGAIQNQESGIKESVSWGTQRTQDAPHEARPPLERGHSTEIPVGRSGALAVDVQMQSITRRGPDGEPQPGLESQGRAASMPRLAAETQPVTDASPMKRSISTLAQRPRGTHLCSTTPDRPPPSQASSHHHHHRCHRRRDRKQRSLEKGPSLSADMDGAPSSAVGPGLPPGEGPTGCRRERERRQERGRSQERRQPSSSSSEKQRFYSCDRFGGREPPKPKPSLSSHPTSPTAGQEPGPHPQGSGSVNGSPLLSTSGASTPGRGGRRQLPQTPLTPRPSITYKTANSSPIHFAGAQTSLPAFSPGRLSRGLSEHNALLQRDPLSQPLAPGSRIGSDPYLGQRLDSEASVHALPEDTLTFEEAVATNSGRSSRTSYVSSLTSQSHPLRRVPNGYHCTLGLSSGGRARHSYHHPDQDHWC
Source text: In the process, the Ca^2+ influx is quantified in the FLIPR assay with the aid of a Ca^2+-sensitive dye (type Fluo-4, Molecular Probes Europe BV, Leiden, the Netherlands) in a fluorescent imaging plate reader (FLIPR 3, Molecular Devices, Sunnyvale, USA), as described hereinafter.
[drawing 69] 2. Assay Descriptions and Biological Data: 2.1 Fluorescence Assay for CaV2.2 Channels Using Potassium Depolarization to Induce Channel Opening
Human CaV2.2 channels were stably expressed in HEK293 cells together with alpha2-delta and beta subunits of voltage gated calcium channels. In addition, an inwardly rectifying potassium channel (Kir2.3) was stably expressed in these cells to augment control of the cell membrane potential by the concentration of extracellular potassium ions. Raise of the extracellular potassium concentration leads to depolarization of the membrane potential and thus regulates the voltage dependent state of CaV2.2 channels. For preparation, cells were seeded in black poly-D-lysine coated 96-well plates (Becton Dickinson, Biocoat 4640) in 100 μL medium [500 mL DMEM/F-12 plus Glutamax (Invitrogen 31331-093) plus 5.5 mL MEM NEAA 100× (Invitrogen 11140-035) plus 50 mL FBS decomplemented (Invitrogen 10270-106) plus 200 μg/mL Geneticin (Invitrogen 10131-027) plus 50 μg/mL Hygromycin B (Invitrogen 10687-010) plus 2 μg/mL Blasticidin (anti-b15b Invivo-Gen) plus 0.2 μg/mL Puromycin (A 11138-03)] at a cell density of 30.000 cells per well. Plates were incubated at 37° C. (5% CO2) for 20 to 23 h. On the day of experiment medium was discarded and cells were loaded with Fluo 4 by addition of 100 μL of basic assay buffer (10 mM HEPES, 1 mM KCl, 149 mM NaCl, 0.8 mM CaCl2, 1.7 mM MgCl2, 10 mM Glucose, 0.1% BSA. pH 7.4) containing 2 μM Fluo 4 (Molecular Probes; F-14201), 0.01% pluronic acid (Molecular Probes; P-6866) and 2.5 mM probenecid (Molecular Probes; P36400). Cells were incubated in the dark at 25° C. for 60 min. Then dye containing buffer was discarded and 100 μL basic (1 mM KCl) or alternative (30 mM KCl) assay buffer was added. The alternative assay buffer contained altered concentrations of KCl (30 mM) and NaCl (120 mM) and was used in order to promote the inactivated channel state. After that 25 μL of basic or alternative assay buffer with or without test compound were added and cells were incubated again in the dark at 25° C. for 15 min. Fluorescence intensity was measured on a FLIPR 3 instrument (Molecular Devices Corp., Sunnyvale, Calif.) with excitation at 480 nm and emission at 535 nm. After continuously reading fluorescence for 30 sec, 50 μL of basic assay buffer containing 210 mM KCl(NaCl omitted) were added for depolarization. Peak fluorescent signal intensity was determined and the amplitude of the peak signal, normalized to base line, was used to measure channel inhibition by test compounds.

`CC1(S(=O)(=O)c2cccc(C(F)(F)F)c2)CCOC(c2cc(OCC(F)F)n[nH]2)C1` (stereo not drawn) [Example 32 cis-EN2, 5-(2,2-Difluoro-ethoxy)-3-[4-methyl-4-[[3-(trifluoromethyl)phenyl]sulfonyl]-tetrahydro-pyran-2-yl]-1H-pyrazole] was tested. Which “Activity Category: %-Inhib (CaV2.2) @3 μM @30 mM KCl” value (from here on “Activity Category: %-Inhib”) did it give?
Its value is “B (%-Inhibition >75% up to ≤95%)”.

Which “Activity Category: %-Inhib” value does the source give for `CC1(S(=O)(=O)c2cccc(C(F)(F)F)c2)CCOC(c2cc(CC(F)F)n[nH]2)C1` (stereo not drawn) [Example 14 cis-EN2, 3-(2,2-Difluoro-ethyl)-5-[4-methyl-4-[[3-(trifluoromethyl)phenyl]sulfonyl]-tetrahydro-pyran-2-yl]-1H-pyrazole] here?
The value was “A (%-Inhibition >95%)”.

`CC1(S(=O)(=O)c2cccc(C(F)(F)F)c2)CCOC(c2cc(S(=O)(=O)C(F)(F)F)n[nH]2)C1` (stereo not drawn) [Example 27 cis-EN2, 3-(Trifluoro-methylsulfonyl)-5-[4-methyl-4-[[3-(trifluoromethyl)phenyl]sulfonyl]-tetrahydro-pyran-2-yl]-1H-pyrazole] was tested. Which “Activity Category: %-Inhib” value did it give?
Its value is “B (%-Inhibition >75% up to ≤95%)”.

For `CC(C)CS(=O)(=O)c1cc(C2CC(C)(S(=O)(=O)c3cccc(C(F)(F)F)c3)CCO2)[nH]n1` (stereo not drawn) [Example 35 cis-EN2, 3-(2-Methyl-propylsulfonyl)-5-[4-methyl-4-[[3-(trifluoromethyl)phenyl]sulfonyl]-tetrahydro-pyran-2-yl]-1H-pyrazole], which “Activity Category: %-Inhib” value is on record?
Its value is “A (%-Inhibition >95%)”.

same assay, conditions: 3 μM test compound, 30 mM KCl assay buffer (inactivated channel state), HEK293 cells; listed as 4 cis-EN2

For `CC1(S(=O)(=O)c2cccc(C(F)(F)F)c2)CCOC(c2cc(S(=O)(=O)C3COC3)n[nH]2)C1` (stereo not drawn) [Example 4 cis-EN2, 5-[4-Methyl-4-[[3-(trifluoromethyl)phenyl]sulfonyl]-tetrahydro-pyran-2-yl]-3-(oxetan-3-ylsulfonyl)-1H-pyrazole], which “Activity Category: %-Inhib” value is on record?
Its value is “B (%-Inhibition >75% up to ≤95%)”.

same assay, conditions: 3 μM test compound, 30 mM KCl assay buffer (inactivated channel state), HEK293 cells; listed as 19 cis-EN2

`CC(C)(O)c1cc(C2CC(C)(S(=O)(=O)c3cccc(C(F)(F)F)c3)CCO2)[nH]n1` (stereo not drawn) [Example 19 cis-EN2, 2-[5-[4-Methyl-4-[[3-(trifluoromethyl)phenyl]sulfonyl]-tetrahydro-pyran-2-yl]-1H-pyrazol-3-yl]-propan-2-ol] was tested. Which “Activity Category: %-Inhib” value did it give?
The value was “C (%-Inhibition >40% up to ≤75%)”.

same assay, conditions: 3 μM test compound, 30 mM KCl assay buffer (inactivated channel state), HEK293 cells; listed as 38 cis-EN2

For `CC(C)(C#N)c1cc(C2CC(C)(S(=O)(=O)c3cccc(C(F)(F)F)n3)CCO2)[nH]n1` (stereo not drawn) [Example 38 cis-EN2, 2-Methyl-2-[5-[4-methyl-4-[[6-(trifluoromethyl)-pyridin-2-yl]sulfonyl]-tetrahydro-pyran-2-yl]-1H-pyrazol-3-yl]-propionitrile], which “Activity Category: %-Inhib” value is on record?
Its value is “B (%-Inhibition >75% up to ≤95%)”.

same assay, conditions: HEK293, 3 μM test compound, 30 mM KCl assay buffer (inactivated channel state), HEK293 cells; read-out: Activity Category: %-Inhib (CaV2.2) @3 μM @30 mM KCl

`COCC(C)(C)c1cc(C2CC(C)(S(=O)(=O)c3cccc(C(F)(F)F)c3)CCO2)[nH]n1` (stereo not drawn) [Example 33 cis-EN1, 3-(2-Methoxy-1,1-dimethyl-ethyl)-5-[4-methyl-4-[[3-(trifluoromethyl)phenyl]sulfonyl]-tetrahydro-pyran-2-yl]-1H-pyrazole] was tested. Which inhibition at 3 µM did it give?
The inhibition at 3 µM was over 95%.

How did the inhibition at 3 µM turn out when `CC1(S(=O)(=O)c2cccc(C(F)(F)F)c2)CCOC(c2cc(S(=O)(=O)C(F)F)n[nH]2)C1` (stereo not drawn) [[cis-EN1] Example 1, 3-(Difluoro-methylsulfonyl)-5-[4-methyl-4-[[3-(trifluoromethyl)phenyl]sulfonyl]-tetrahydro-pyran-2-yl]-1H-pyrazole] was run?
Its inhibition at 3 µM is 75 to 95%.

With `CC(C)(CO)c1cc(C2CC(C)(S(=O)(=O)c3cccc(C(F)(F)F)c3)CCO2)[nH]n1` (stereo not drawn) [Example 34 cis-EN1, 2-Methyl-2-[5-[4-methyl-4-[[3-(trifluoromethyl)phenyl]sulfonyl]-tetrahydro-pyran-2-yl]-1H-pyrazol-3-yl]-propan-1-ol] as the molecule, how does the inhibition at 3 µM read?
Its inhibition at 3 µM is 75 to 95%.

`CC(C)CS(=O)(=O)c1cc(C2CC(C)(S(=O)(=O)c3cccc(C(F)(F)F)c3)CCO2)[nH]n1` (stereo not drawn) [Example 35 cis-EN1, 3-(2-Methyl-propylsulfonyl)-5-[4-methyl-4-[[3-(trifluoromethyl)phenyl]sulfonyl]-tetrahydro-pyran-2-yl]-1H-pyrazole] was tested. Which inhibition at 3 µM did it give?
Its inhibition at 3 µM is 75 to 95%.

`CC1(S(=O)(=O)c2cccc(C(F)(F)F)c2)CCOC(c2cc(CS(=O)(=O)C(F)F)n[nH]2)C1` (stereo not drawn) [Example 28 cis-EN1, 3-[(Difluoro-methylsulfonyl)-methyl]-5-[4-methyl-4-[[3-(trifluoromethyl)phenyl]sulfonyl]-tetrahydro-pyran-2-yl]-1H-pyrazole] was tested. Which inhibition at 3 µM did it give?
Its inhibition at 3 µM is 75 to 95%.

`CC1(S(=O)(=O)c2cccc(C(F)(F)F)c2)CCOC(c2cc(OCC(F)(F)F)n[nH]2)C1` (stereo not drawn) [Example 16 cis-EN2, 5-[4-Methyl-4-[[3-(trifluoromethyl)phenyl]sulfonyl]-tetrahydro-pyran-2-yl]-3-(2,2,2-trifluoro-ethoxy)-1H-pyrazole] was tested. Which inhibition at 3 µM did it give?
The inhibition at 3 µM was over 95%.

How did the inhibition at 3 µM turn out when `CC1(S(=O)(=O)c2cccc(C(F)(F)F)c2)CCOC(c2cc(S(=O)(=O)CC(F)F)n[nH]2)C1` (stereo not drawn) [Example 3 cis-EN1, 3-(2,2-Difluoro-ethylsulfonyl)-5-[4-methyl-4-[[3-(trifluoromethyl)phenyl]sulfonyl]-tetrahydro-pyran-2-yl]-1H-pyrazole] was run?
Its inhibition at 3 µM is 30 to 40%.

Which inhibition at 3 µM does the source give for `CC(C)(C(N)=O)c1cc(C2CC(C)(S(=O)(=O)c3cccc(C(F)(F)F)c3)CCO2)[nH]n1` (stereo not drawn) [Example 30 cis-EN2, 2-Methyl-2-[5-[4-methyl-4-[[3-(trifluoromethyl)phenyl]sulfonyl]-tetrahydro-pyran-2-yl]-1H-pyrazol-3-yl]-propionamide] here?
The inhibition at 3 µM was 40 to 75%.

For `CC1(S(=O)(=O)c2cccc(C(F)(F)F)c2)CCOC(c2cc(OCC(F)F)n[nH]2)C1` (stereo not drawn) [Example 32 cis-EN1, 5-(2,2-Difluoro-ethoxy)-3-[4-methyl-4-[[3-(trifluoromethyl)phenyl]sulfonyl]-tetrahydro-pyran-2-yl]-1H-pyrazole], which inhibition at 3 µM is on record?
Its inhibition at 3 µM is over 95%.

For `CC1(S(=O)(=O)c2cccc(C(F)(F)F)c2)CCOC(c2cc(CC(F)F)n[nH]2)C1` (stereo not drawn) [Example 14 cis-EN1, 3-(2,2-Difluoro-ethyl)-5-[4-methyl-4-[[3-(trifluoromethyl)phenyl]sulfonyl]-tetrahydro-pyran-2-yl]-1H-pyrazole], which inhibition at 3 µM is on record?
Its inhibition at 3 µM is 75 to 95%.
